Target: Prothrombin (Homo sapiens) (UniProt P00734)
Assay: Relative prothrombin time was determined as the activity of the test ODN (oligodeoxynucleotide) relative to that of GS-522

Row | SMILES | Relative PT
1 | Cc1cn([C@H]2C[C@H](OCOC[C@H]3O[C@@H](n4cnc5c(=O)nc(N)[nH]c54)C[C@@H]3OP(=O)(O)OC[C@H]3O[C@@H](n4cnc5c(=O)[nH]c(=N)[nH]c54)C[C@@H]3OP(=O)(O)OC[C@H]3O[C@@H](n4cc(C)c(=O)[nH]c4=O)C[C@@H]3OP(=O)(O)OC[C@H]3O[C@@H](n4cnc5c(=O)[nH]c(=N)[nH]c54)C[C@@H]3OP(=O)(O)OC[C@H]3O[C@@H](n4cc(C)c(=O)[nH]c4=O)C[C@@H]3OCOC[C@H]3O[C@@H](n4cnc5c(=O)nc(N)[nH]c54)C[C@@H]3OP(=O)(O)OC[C@H]3O[C@@H](n4cnc5c(=O)[nH]c(=N)[nH]c54)C[C@@H]3OP(=O)(O)OC[C@H]3O[C@@H](n4cc(C)c(=O)[nH]c4=O)C[C@@H]3OP(=O)(O)OC[C@H]3O[C@@H](n4cc(C)c(=O)[nH]c4=O)C[C@@H]3OP(=O)(O)OC[C@H]3O[C@@H](n4cnc5c(=O)[nH]c(=N)[nH]c54)C[C@@H]3OP(=O)(O)OC[C@H]3O[C@@H](n4cnc5c(=O)nc(N)[nH]c54)C[C@@H]3O)[C@@H](COP(=O)(O)O[C@H]3C[C@H](n4cc(C)c(=O)[nH]c4=O)O[C@@H]3COP(=O)(O)O[C@H]3C[C@H](n4cnc5c(=O)[nH]c(=N)[nH]c54)O[C@@H]3COP(=O)(O)O[C@H]3C[C@H](n4cnc5c(=O)[nH]c(=N)[nH]c54)O[C@@H]3COP(=O)(O)O)O2)c(=O)[nH]c1=O | 0.7
2 | Cc1cn([C@H]2C[C@H](OCOC[C@H]3O[C@@H](n4cnc5c(=O)nc(N)[nH]c54)C[C@@H]3OP(=O)(O)OC[C@H]3O[C@@H](n4cnc5c(=O)[nH]c(=N)[nH]c54)C[C@@H]3OP(=O)(O)OC[C@H]3O[C@@H](n4cc(C)c(=O)[nH]c4=O)C[C@@H]3OCOC[C@H]3O[C@@H](n4cc(C)c(=O)[nH]c4=O)C[C@@H]3OP(=O)(O)OC[C@H]3O[C@@H](n4cnc5c(=O)[nH]c(=N)[nH]c54)C[C@@H]3OP(=O)(O)OC[C@H]3O[C@@H](n4cnc5c(=O)nc(N)[nH]c54)C[C@@H]3O)[C@@H](COP(=O)(O)O[C@H]3C[C@H](n4cnc5c(O)nc(=N)[nH]c54)O[C@@H]3COP(=O)(O)O[C@H]3C[C@H](n4cc(C)c(=O)[nH]c4=O)O[C@@H]3COP(=O)(O)O[C@H]3C[C@H](n4cnc5c(=O)[nH]c(=N)[nH]c54)O[C@@H]3COP(=O)(O)O[C@H]3C[C@H](n4cnc5c(=O)nc(N)[nH]c54)O[C@@H]3COP(=O)(O)O[C@H]3C[C@H](n4cc(C)c(=O)[nH]c4=O)O[C@@H]3COCO[C@H]3C[C@H](n4cc(C)c(=O)[nH]c4=O)O[C@@H]3COP(=O)(O)O[C@H]3C[C@H](n4cnc5c(=O)nc(N)[nH]c54)O[C@@H]3COP(=O)(O)O[C@H]3C[C@H](n4cnc5c(=O)[nH]c(=N)[nH]c54)O[C@@H]3COP(=O)(O)O)O2)c(=O)[nH]c1=O | 1.1
3 | Cc1cn([C@H]2C[C@H](OP(=O)(O)OC[C@H]3O[C@@H](n4cnc5c(=O)nc(N)[nH]c54)C[C@@H]3OCOC[C@H]3O[C@@H](n4cnc5c(=O)[nH]c(=N)[nH]c54)C[C@@H]3OP(=O)(O)OC[C@H]3O[C@@H](n4cc(C)c(=O)[nH]c4=O)C[C@@H]3OP(=O)(O)OC[C@H]3O[C@@H](n4cnc5c(O)nc(=N)[nH]c54)C[C@@H]3OP(=O)(O)OC[C@H]3O[C@@H](n4cc(C)c(=O)[nH]c4=O)C[C@@H]3OP(=O)(O)OC[C@H]3O[C@@H](n4cnc5c(=O)nc(N)[nH]c54)C[C@@H]3OP(=O)(O)OC[C@H]3O[C@@H](n4cnc5c(=O)[nH]c(=N)[nH]c54)C[C@@H]3OP(=O)(O)OC[C@H]3O[C@@H](n4cc(C)c(=O)[nH]c4=O)C[C@@H]3OP(=O)(O)OC[C@H]3O[C@@H](n4cc(C)c(=O)[nH]c4=O)C[C@@H]3OP(=O)(O)OC[C@H]3O[C@@H](n4cnc5c(=O)[nH]c(=N)[nH]c54)C[C@@H]3OP(=O)(O)OC[C@H]3O[C@@H](n4cnc5c(=O)nc(N)[nH]c54)C[C@@H]3O)[C@@H](COP(=O)(O)O[C@H]3C[C@H](n4cc(C)c(=O)[nH]c4=O)O[C@@H]3COP(=O)(O)O[C@H]3C[C@H](n4cnc5c(=O)nc(N)[nH]c54)O[C@@H]3COCO[C@H]3C[C@H](n4cnc5c(=O)[nH]c(=N)[nH]c54)O[C@@H]3COP(=O)(O)O)O2)c(=O)[nH]c1=O | 0.6
4 | Cc1cn([C@H]2C[C@H](OCOC[C@H]3O[C@@H](n4cnc5c(=O)nc(N)[nH]c54)C[C@@H]3OP(=O)(O)OC[C@H]3O[C@@H](n4cnc5c(=O)[nH]c(=N)[nH]c54)C[C@@H]3OP(=O)(O)OC[C@H]3O[C@@H](n4cc(C)c(=O)[nH]c4=O)C[C@@H]3OCOC[C@H]3O[C@@H](n4cnc5c(=O)[nH]c(=N)[nH]c54)C[C@@H]3OP(=O)(O)OC[C@H]3O[C@@H](n4cc(C)c(=O)[nH]c4=O)C[C@@H]3OP(=O)(O)OC[C@H]3O[C@@H](n4cnc5c(=O)nc(N)[nH]c54)C[C@@H]3OP(=O)(O)OC[C@H]3O[C@@H](n4cnc5c(=O)[nH]c(=N)[nH]c54)C[C@@H]3OP(=O)(O)OC[C@H]3O[C@@H](n4cc(C)c(=O)[nH]c4=O)C[C@@H]3OP(=O)(O)OC[C@H]3O[C@@H](n4cc(C)c(=O)[nH]c4=O)C[C@@H]3OP(=O)(O)OC[C@H]3O[C@@H](n4cnc5c(=O)[nH]c(=N)[nH]c54)C[C@@H]3OP(=O)(O)OC[C@H]3O[C@@H](n4cnc5c(=O)nc(N)[nH]c54)C[C@@H]3O)[C@@H](COP(=O)(O)O[C@H]3C[C@H](n4cc(C)c(=O)[nH]c4=O)O[C@@H]3COP(=O)(O)O[C@H]3C[C@H](n4cnc5c(=O)[nH]c(=N)[nH]c54)O[C@@H]3COP(=O)(O)O[C@H]3C[C@H](n4cnc5c(=O)[nH]c(=N)[nH]c54)O[C@@H]3COP(=O)(O)O)O2)c(=O)[nH]c1=O | 0.3

Other lines, results leading:

Row | Relative PT | SMILES
5 | 0.8 | Cc1cn([C@H]2C[C@H](OP(=O)(O)OC[C@H]3O[C@@H](n4cnc5c(=O)[nH]c(=N)[nH]c54)C[C@@H]3OP(=O)(O)OC[C@H]3O[C@@H](n4cc(C)c(=O)[nH]c4=O)C[C@@H]3OP(=O)(O)OC[C@H]3O[C@@H](n4cnc5c(=O)nc(N)[nH]c54)C[C@@H]3OP(=O)(O)OC[C@H]3O[C@@H](n4cnc5c(=O)[nH]c(=N)[nH]c54)C[C@@H]3OP(=O)(O)OC[C@H]3O[C@@H](n4cc(C)c(=O)[nH]c4=O)C[C@@H]3OP(=O)(O)OC[C@H]3O[C@@H](n4cc(C)c(=O)[nH]c4=O)C[C@@H]3OP(=O)(O)OC[C@H]3O[C@@H](n4cnc5c(=O)[nH]c(=N)[nH]c54)C[C@@H]3OP(=O)(O)OC[C@H]3O[C@@H](n4cnc5c(=O)nc(N)[nH]c54)C[C@@H]3O)[C@@H](COCO[C@H]3C[C@H](n4cnc5c(=O)[nH]c(=N)[nH]c54)O[C@@H]3COP(=O)(O)O[C@H]3C[C@H](n4cnc5c(=O)nc(N)[nH]c54)O[C@@H]3COP(=O)(O)O[C@H]3C[C@H](n4cc(C)c(=O)[nH]c4=O)O[C@@H]3COP(=O)(O)O[C@H]3C[C@H](n4cc(C)c(=O)[nH]c4=O)O[C@@H]3COP(=O)(O)O[C@H]3C[C@H](n4cnc5c(=O)nc(N)[nH]c54)O[C@@H]3COP(=O)(O)O[C@H]3C[C@H](n4cnc5c(=O)nc(N)[nH]c54)O[C@@H]3COP(=O)(O)O)O2)c(=O)[nH]c1=O
6 | 1.1 | Cc1cn([C@H]2C[C@H](OCOC[C@H]3O[C@@H](n4cc(C)c(=O)[nH]c4=O)C[C@@H]3OP(=O)(O)OC[C@H]3O[C@@H](n4cnc5c(=O)[nH]c(=N)[nH]c54)C[C@@H]3OP(=O)(O)OC[C@H]3O[C@@H](n4cnc5c(=O)nc(N)[nH]c54)C[C@@H]3O)[C@@H](COP(=O)(O)O[C@H]3C[C@H](n4cnc5c(=O)[nH]c(=N)[nH]c54)O[C@@H]3COP(=O)(O)O[C@H]3C[C@H](n4cnc5c(=O)nc(N)[nH]c54)O[C@@H]3COP(=O)(O)O[C@H]3C[C@H](n4cc(C)c(=O)[nH]c4=O)O[C@@H]3COP(=O)(O)O[C@H]3C[C@H](n4cnc5c(=O)[nH]c(=N)[nH]c54)O[C@@H]3COP(=O)(O)O[C@H]3C[C@H](n4cc(C)c(=O)[nH]c4=O)O[C@@H]3COP(=O)(O)O[C@H]3C[C@H](n4cnc5c(=O)[nH]c(=N)[nH]c54)O[C@@H]3COP(=O)(O)O[C@H]3C[C@H](n4cnc5c(=O)nc(N)[nH]c54)O[C@@H]3COP(=O)(O)O[C@H]3C[C@H](n4cc(C)c(=O)[nH]c4=O)O[C@@H]3COP(=O)(O)O[C@H]3C[C@H](n4cc(C)c(=O)[nH]c4=O)O[C@@H]3COP(=O)(O)O[C@H]3C[C@H](n4cnc5c(=O)nc(N)[nH]c54)O[C@@H]3COP(=O)(O)O[C@H]3C[C@H](n4cnc5c(=O)nc(N)[nH]c54)O[C@@H]3COP(=O)(O)O)O2)c(=O)[nH]c1=O
7 | 0.8 | Cc1cn([C@H]2C[C@H](OCOC[C@H]3O[C@@H](n4cnc5c(=O)nc(N)[nH]c54)C[C@@H]3OP(=O)(O)OC[C@H]3O[C@@H](n4cc(C)c(=O)[nH]c4=O)C[C@@H]3OP(=O)(O)OC[C@H]3O[C@@H](n4cnc5c(=O)nc(N)[nH]c54)C[C@@H]3OP(=O)(O)OC[C@H]3O[C@@H](n4cnc5c(=O)[nH]c(=N)[nH]c54)C[C@@H]3OP(=O)(O)OC[C@H]3O[C@@H](n4cc(C)c(=O)[nH]c4=O)C[C@@H]3OP(=O)(O)OC[C@H]3O[C@@H](n4cc(C)c(=O)[nH]c4=O)C[C@@H]3OP(=O)(O)OC[C@H]3O[C@@H](n4cnc5c(=O)[nH]c(=N)[nH]c54)C[C@@H]3OP(=O)(O)OC[C@H]3O[C@@H](n4cnc5c(=O)nc(N)[nH]c54)C[C@@H]3O)[C@@H](COP(=O)(O)O[C@H]3C[C@H](n4cnc5c(=O)[nH]c(=N)[nH]c54)O[C@@H]3COP(=O)(O)O[C@H]3C[C@H](n4cnc5c(=O)nc(N)[nH]c54)O[C@@H]3COP(=O)(O)O[C@H]3C[C@H](n4cc(C)c(=O)[nH]c4=O)O[C@@H]3COP(=O)(O)O[C@H]3C[C@H](n4cc(C)c(=O)[nH]c4=O)O[C@@H]3COP(=O)(O)O[C@H]3C[C@H](n4cnc5c(=O)nc(N)[nH]c54)O[C@@H]3COP(=O)(O)O[C@H]3C[C@H](n4cnc5c(=O)nc(N)[nH]c54)O[C@@H]3COP(=O)(O)O)O2)c(=O)[nH]c1=O
